The results in this text go back to ChEMBL document CHEMBL1201862, “PubChem BioAssay data set” (2004).

Assay [1] has as its target Botulinum neurotoxin type F (Clostridium botulinum, UniProt P30996). Description: High-throughput multiplex microsphere dose response for inhibitors of toxin protease, specifically Botulinum neurotoxin light chain F protease, compounds from Cherry Pick 02. It counts as functional. Particulars: read-out: EC50_MICROM.
Assay [2] has as its target T1, Carboxy-terminal domain RNA polymerase II polypeptide A small phosphatase 1 (Homo sapiens, UniProt Q9GZU7).
T1 sequence (Q9GZU7 whole entry): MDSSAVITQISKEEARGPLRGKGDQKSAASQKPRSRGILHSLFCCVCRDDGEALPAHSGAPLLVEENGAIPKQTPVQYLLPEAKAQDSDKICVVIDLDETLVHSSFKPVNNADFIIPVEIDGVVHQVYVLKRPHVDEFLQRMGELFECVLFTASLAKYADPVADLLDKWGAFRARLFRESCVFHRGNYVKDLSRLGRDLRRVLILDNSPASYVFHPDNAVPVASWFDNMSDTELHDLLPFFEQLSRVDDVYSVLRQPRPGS
Kind of assay: inhibitors of CTDSP1, concentration-response testing, biochemical assay, absorbance-based, actives from ultra-high-throughput screening (AID 540297). Type of assay: functional.

Assay [3] addresses Arf-GAP with SH3 domain, ANK repeat and PH domain-containing protein 1 (Homo sapiens, UniProt Q9ULH1). It counts as functional.
Assay [4] concerns the target SWI/SNF-related matrix-associated actin-dependent regulator of chromatin subfamily A member 2 (Homo sapiens, UniProt P51531). Kind of assay: Luminescence-based cell-based high throughput dose response assay to identify activators of the function of SWI/SNF related, matrix associated, actin dependent regulator of chromatin, subfamily a, member 2 (SMARCA2, BRM). It counts as functional.

The nature of assay [5]: Counterscreen for activators of the function of SWI/SNF related, matrix associated, actin dependent regulator of chromatin, subfamily a, member 2 (SMARCA2, BRM): Luminescence-based cell-based high throughput dose response assay to identify non-selective compounds using the VP16 reporter assay. Type of assay: functional.
A short description of assay [6]: Luminescence Cell-Based Dose Response to Identify Activators of 5'UTR Stem-Loop Driven Prion Protein mRNA Translation in H4-C Neuroglioblastoma Cells. [Related pubchem assays: 1829 (Project Summary), 1814 (Primary HTS)]. It counts as functional.
The nature of assay [7]: Luminescence Cell-Based Dose Response HTS to Identify Activators of Luciferase Translation or Activity in H4 […] Cells. [Related pubchem assays: 1829 (Project Summary), 1814 (Primary HTS)]. Type of assay: functional.
The test system of assay [8] is H4. Description: Luminescence Cell-Based Dose Response HTS to Identify Activators of 5'UTR Stem-Loop Driven Prion Protein mRNA Translation in H4 Neuroglioblastoma Cells. [Related pubchem assays: 1829 (Project Summary), 1814 (Primary HTS)]. The following applies: Homo sapiens. It counts as functional.
Assay [9] in a line: Luminescence Cell-Based Dose Response to Identify Activators of Luciferase Translation or Activity in H4-C Neuroglioblastoma Cells. [Related pubchem assays: 1829 (Project Summary), 1814 (Primary HTS)]. It counts as functional.
A short description of assay [10]: Luminescence Cell-Based Dose Confirmation to Identify Activators of 5'UTR Stem-Loop Driven Alpha-Synuclein mRNA Translation in H4 Neuroglioblastoma Cells. [Related pubchem assays: 1829 (Project Summary), 1814 (Primary HTS)]. Type of assay: functional.
In assay [11] the target is ATP-dependent translocase ABCB1 (Homo sapiens, UniProt P08183). Kind of assay: ABCB1 efflux pump inhibitor potency, dose response, Jurkat-DNR cells, JC-1, flow cytometry (AID 1689). It counts as functional.
Chain of ATP-dependent translocase ABCB1 (P08183 whole entry): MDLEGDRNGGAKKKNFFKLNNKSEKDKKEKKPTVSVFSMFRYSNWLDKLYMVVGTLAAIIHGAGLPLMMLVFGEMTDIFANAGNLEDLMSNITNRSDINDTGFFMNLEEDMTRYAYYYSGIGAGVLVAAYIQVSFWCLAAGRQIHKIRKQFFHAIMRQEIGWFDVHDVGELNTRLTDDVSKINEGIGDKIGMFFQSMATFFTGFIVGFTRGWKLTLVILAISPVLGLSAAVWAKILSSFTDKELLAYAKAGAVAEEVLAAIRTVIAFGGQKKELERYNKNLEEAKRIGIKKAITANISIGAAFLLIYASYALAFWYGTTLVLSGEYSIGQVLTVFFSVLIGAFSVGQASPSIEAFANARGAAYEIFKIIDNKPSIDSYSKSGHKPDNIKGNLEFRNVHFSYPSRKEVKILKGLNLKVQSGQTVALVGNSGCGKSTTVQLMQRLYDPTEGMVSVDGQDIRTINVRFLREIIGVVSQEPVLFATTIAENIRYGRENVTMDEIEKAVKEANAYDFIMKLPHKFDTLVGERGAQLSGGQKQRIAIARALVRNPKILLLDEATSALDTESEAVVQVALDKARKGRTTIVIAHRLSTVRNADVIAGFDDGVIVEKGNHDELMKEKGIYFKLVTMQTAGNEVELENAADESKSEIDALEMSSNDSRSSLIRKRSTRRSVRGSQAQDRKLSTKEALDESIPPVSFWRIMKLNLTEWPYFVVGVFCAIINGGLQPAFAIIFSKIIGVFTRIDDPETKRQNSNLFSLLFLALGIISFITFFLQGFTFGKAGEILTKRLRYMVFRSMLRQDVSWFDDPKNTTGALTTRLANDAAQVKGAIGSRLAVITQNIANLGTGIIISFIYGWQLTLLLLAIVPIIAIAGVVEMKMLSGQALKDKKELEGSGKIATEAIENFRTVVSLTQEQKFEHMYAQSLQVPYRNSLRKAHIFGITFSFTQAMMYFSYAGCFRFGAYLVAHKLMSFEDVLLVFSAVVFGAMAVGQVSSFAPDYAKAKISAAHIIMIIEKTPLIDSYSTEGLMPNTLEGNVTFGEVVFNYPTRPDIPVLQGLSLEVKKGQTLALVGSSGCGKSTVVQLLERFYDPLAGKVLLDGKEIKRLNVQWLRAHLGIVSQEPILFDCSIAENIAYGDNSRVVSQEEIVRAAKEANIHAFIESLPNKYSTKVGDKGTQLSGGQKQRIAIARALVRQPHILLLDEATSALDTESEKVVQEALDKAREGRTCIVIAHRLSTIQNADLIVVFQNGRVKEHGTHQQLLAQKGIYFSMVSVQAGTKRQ
The target in assay [12] is T2, Protein skinhead-1 (Caenorhabditis elegans, UniProt P34707).
T2 sequence (P34707 whole entry): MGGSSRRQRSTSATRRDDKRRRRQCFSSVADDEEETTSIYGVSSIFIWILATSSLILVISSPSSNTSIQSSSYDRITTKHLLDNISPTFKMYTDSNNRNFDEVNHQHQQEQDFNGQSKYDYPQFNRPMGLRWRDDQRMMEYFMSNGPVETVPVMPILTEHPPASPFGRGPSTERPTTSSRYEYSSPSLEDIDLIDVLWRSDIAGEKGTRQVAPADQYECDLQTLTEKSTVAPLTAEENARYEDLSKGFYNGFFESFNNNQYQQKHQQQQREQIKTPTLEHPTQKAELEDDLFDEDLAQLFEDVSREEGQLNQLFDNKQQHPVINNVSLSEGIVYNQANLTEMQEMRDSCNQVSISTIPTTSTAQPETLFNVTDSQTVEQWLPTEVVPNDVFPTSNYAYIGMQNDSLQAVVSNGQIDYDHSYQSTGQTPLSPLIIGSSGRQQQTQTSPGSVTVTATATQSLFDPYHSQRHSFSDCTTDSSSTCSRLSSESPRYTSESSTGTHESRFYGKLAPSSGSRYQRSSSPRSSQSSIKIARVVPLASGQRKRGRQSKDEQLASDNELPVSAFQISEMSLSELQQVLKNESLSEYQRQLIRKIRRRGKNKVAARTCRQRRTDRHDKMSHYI
It counts as functional.

In assay [13] the target is Broad substrate specificity ATP-binding cassette transporter ABCG2 (Homo sapiens, UniProt Q9UNQ0). Kind of assay: ABCG2 efflux pump inhibitors, dose response, Ig-MXP3 cells, flow cytometry (AID 1690). Type of assay: functional.
Assay [14] concerns the target T3, Heat shock factor protein 1 (Mus musculus, UniProt P38532).
T3 sequence (P38532 whole entry): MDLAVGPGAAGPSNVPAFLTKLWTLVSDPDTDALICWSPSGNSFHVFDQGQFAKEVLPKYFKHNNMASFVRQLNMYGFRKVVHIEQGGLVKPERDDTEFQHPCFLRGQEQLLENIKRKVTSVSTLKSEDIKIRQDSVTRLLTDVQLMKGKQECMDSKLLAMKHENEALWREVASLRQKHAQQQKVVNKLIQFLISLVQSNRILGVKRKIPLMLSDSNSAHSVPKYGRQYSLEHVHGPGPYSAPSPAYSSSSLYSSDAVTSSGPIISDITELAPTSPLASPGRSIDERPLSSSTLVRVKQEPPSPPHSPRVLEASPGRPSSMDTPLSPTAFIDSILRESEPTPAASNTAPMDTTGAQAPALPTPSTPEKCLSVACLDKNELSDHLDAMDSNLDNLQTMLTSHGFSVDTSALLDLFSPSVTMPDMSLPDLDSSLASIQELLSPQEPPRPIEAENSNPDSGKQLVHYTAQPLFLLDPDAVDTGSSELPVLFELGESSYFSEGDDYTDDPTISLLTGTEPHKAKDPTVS
Kind of assay: HSF1 potentiators in luciferase reporter cells, confirmation, cell-based, NIH3T3, luminescence, dose retest (AID 435004).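 Note: stress induced by proteasome inhibitor MG132 added 30 min after compound; luciferase reporter driven by HSF1 response element in NIH3T3 cells; actives raise luminescence as potentiators of the MG132 stress response.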 Type of assay: functional.

In assay [15] the target is FAD-linked sulfhydryl oxidase ALR (Homo sapiens, UniProt P55789). Description: inhibitors of human ALR sulfhydryl oxidase, dose response, biochemical, H2O2 detection, luminescence, cherry-pick (AID 493248).
Chain of FAD-linked sulfhydryl oxidase ALR (P55789 whole entry): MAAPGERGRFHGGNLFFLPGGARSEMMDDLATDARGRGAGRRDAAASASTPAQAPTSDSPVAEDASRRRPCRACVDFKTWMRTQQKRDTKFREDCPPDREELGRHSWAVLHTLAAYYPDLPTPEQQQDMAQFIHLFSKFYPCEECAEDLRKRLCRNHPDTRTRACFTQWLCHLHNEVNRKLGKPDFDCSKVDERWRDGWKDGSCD
Assay [16] deals with T4, Replicative DNA helicase DnaB (Mycobacterium tuberculosis, UniProt P9WMR3).
T4 sequence (P9WMR3 whole entry): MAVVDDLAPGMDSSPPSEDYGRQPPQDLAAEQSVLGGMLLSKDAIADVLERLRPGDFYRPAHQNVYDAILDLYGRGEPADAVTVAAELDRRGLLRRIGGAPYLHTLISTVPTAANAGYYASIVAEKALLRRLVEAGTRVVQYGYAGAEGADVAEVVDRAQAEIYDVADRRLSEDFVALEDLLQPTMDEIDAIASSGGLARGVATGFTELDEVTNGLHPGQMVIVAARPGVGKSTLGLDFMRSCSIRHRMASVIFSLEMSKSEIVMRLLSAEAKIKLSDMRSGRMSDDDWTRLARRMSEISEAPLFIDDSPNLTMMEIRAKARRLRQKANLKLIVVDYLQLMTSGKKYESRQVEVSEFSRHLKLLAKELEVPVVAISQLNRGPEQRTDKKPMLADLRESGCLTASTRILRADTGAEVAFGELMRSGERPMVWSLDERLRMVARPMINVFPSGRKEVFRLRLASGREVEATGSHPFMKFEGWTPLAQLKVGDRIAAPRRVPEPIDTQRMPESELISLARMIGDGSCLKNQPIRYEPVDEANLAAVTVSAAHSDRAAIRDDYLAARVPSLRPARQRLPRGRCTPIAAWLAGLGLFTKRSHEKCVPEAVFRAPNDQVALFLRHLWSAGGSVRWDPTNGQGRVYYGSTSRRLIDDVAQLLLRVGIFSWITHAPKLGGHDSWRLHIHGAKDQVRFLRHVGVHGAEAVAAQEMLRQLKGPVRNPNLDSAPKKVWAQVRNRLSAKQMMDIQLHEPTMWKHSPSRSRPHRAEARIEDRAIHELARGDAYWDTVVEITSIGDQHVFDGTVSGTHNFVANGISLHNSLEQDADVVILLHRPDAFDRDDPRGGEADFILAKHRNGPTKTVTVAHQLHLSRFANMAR
Kind of assay: DnaB intein splicing inhibitors, dose response, biochemical, cell-free fluorescence (AID 449749). Type of assay: functional.

Assay [17] addresses T5, Protein RecA (Mycobacterium tuberculosis, UniProt P9WHJ3).
T5 sequence (P9WHJ3 whole entry): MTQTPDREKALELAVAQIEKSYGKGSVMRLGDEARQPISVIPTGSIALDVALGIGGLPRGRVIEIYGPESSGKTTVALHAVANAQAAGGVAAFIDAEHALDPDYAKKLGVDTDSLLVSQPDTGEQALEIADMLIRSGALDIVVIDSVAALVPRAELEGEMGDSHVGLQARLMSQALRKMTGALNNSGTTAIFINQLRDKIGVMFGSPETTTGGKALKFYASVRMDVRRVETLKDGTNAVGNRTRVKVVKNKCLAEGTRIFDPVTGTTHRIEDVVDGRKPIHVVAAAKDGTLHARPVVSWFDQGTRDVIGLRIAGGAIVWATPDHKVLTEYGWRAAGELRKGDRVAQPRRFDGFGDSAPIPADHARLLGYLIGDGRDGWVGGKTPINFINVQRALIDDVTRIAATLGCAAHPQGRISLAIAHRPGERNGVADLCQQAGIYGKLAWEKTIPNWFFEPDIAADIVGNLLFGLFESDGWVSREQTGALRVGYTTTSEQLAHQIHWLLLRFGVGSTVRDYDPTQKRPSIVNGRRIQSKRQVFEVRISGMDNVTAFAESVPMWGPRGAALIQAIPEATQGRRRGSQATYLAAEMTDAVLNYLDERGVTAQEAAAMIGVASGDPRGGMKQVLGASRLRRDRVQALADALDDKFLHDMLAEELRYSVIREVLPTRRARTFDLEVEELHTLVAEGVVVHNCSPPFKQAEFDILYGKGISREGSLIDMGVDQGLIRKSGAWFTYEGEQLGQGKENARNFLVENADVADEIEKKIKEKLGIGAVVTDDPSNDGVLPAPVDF
Kind of assay: Fluorescence Cell-Free Homogeneous Dose Retest to Identify Inhibitors of RecA-Intein Splicing Activity. [Related pubchem assays (depositor defined):AID2097, AID2223, AID489010, AID492950]. Type of assay: functional.

Assay [18] in a line: Shn3 3'UTR reporter inhibitors, dose response, cell-based, Clone20 osteoblasts, firefly luciferase, cherry-picked (AID 624132).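 Note: firefly luciferase luminescence from reporter carrying the Shn3 3'UTR in osteoblasts.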 It counts as functional.
The nature of assay [19]: HepG2 cell cytotoxicity, dose response, cytotoxicity control for Shn3 inhibitor project, CellTiter-Glo, cherry-picked (AID 624134). Type of assay: functional, cell-based.
The nature of assay [20]: control 3'UTR Renilla luciferase suppression, dose response, counter-screen for Shn3 inhibitor project, cell-based, Clone20-Shn3RL, cherry-picked (AID 624133). Type of assay: functional.
A short description of assay [21]: Fluorescence-based cell-based high throughput dose response assay for inhibitors of the interaction of nucleotide-binding oligomerization domain containing 2 (NOD2) and the receptor-interacting serine-threonine kinase 2 (RIPK2). It counts as functional. Particulars: Homo sapiens.
Assay [22] deals with ATP-binding cassette sub-family B member 6 (Homo sapiens, UniProt Q9NP58). Description: ABCB6 transporter inhibitors, porphyrin accumulation, dose response, flow cytometry, K562-ABCB6 cells, cherry pick 02 (AID 624487). Type of assay: functional. Particulars: read-out: EC50_MICROM.
Chain of ATP-binding cassette sub-family B member 6 (Q9NP58 whole entry): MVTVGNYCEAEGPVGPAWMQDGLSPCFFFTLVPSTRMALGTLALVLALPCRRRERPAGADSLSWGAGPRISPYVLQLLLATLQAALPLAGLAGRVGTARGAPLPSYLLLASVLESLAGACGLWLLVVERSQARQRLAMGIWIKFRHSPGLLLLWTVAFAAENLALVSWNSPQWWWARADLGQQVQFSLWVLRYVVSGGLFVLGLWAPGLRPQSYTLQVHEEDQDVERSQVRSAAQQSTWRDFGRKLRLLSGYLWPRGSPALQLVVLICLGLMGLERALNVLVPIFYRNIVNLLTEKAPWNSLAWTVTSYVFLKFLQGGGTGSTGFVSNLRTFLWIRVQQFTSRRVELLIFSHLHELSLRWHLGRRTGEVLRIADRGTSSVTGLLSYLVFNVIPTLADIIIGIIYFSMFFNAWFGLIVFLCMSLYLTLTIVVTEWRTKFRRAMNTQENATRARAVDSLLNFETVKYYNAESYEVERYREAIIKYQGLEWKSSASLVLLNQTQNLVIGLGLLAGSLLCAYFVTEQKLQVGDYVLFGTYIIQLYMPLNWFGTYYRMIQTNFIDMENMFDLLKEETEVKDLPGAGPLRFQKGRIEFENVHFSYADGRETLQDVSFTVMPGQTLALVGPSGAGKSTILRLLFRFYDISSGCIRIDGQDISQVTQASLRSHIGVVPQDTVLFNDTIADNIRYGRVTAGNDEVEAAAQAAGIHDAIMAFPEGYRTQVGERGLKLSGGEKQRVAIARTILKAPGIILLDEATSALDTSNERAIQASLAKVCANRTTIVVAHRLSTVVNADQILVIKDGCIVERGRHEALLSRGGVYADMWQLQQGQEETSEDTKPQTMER
In assay [23] the test system is HEK293. Kind of assay: cells. Particulars: Homo sapiens.
The test system of assay [24] is HEK293. Description: cells. The following applies: Homo sapiens. This is another data set of the same source.

Calls of active or inactive are those of the source.

Chain of Arf-GAP with SH3 domain, ANK repeat and PH domain-containing protein 1 (Q9ULH1 whole entry, the tested form may be a part): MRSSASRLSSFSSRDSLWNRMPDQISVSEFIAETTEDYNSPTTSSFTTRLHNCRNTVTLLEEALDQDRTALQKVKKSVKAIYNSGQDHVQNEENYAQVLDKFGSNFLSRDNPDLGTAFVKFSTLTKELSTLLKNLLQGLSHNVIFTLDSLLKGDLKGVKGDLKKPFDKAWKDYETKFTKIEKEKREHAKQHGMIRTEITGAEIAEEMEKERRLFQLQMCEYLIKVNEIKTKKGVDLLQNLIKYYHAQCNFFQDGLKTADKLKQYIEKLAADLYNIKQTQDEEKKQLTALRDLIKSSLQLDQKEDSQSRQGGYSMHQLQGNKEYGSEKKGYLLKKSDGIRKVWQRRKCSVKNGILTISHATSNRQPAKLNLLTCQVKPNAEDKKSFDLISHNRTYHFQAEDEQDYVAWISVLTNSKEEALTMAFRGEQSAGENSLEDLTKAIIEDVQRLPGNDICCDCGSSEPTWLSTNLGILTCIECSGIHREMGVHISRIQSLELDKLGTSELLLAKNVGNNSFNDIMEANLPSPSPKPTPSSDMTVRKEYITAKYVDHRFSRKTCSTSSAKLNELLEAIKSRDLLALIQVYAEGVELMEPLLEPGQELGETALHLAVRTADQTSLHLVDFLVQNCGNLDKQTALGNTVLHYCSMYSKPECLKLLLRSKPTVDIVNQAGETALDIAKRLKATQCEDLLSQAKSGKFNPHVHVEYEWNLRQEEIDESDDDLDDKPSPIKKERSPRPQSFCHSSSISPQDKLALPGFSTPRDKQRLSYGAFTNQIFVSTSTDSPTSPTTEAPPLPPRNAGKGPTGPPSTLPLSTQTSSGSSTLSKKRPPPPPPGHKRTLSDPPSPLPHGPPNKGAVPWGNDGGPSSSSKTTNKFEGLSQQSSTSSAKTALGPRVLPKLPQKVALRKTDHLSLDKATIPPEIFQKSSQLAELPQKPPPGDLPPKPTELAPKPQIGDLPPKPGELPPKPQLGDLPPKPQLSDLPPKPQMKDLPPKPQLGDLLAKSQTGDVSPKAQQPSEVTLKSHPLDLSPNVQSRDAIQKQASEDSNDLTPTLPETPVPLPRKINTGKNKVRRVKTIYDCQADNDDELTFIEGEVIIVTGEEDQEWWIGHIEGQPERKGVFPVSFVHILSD
Chain of SWI/SNF-related matrix-associated actin-dependent regulator of chromatin subfamily A member 2 (P51531 whole entry): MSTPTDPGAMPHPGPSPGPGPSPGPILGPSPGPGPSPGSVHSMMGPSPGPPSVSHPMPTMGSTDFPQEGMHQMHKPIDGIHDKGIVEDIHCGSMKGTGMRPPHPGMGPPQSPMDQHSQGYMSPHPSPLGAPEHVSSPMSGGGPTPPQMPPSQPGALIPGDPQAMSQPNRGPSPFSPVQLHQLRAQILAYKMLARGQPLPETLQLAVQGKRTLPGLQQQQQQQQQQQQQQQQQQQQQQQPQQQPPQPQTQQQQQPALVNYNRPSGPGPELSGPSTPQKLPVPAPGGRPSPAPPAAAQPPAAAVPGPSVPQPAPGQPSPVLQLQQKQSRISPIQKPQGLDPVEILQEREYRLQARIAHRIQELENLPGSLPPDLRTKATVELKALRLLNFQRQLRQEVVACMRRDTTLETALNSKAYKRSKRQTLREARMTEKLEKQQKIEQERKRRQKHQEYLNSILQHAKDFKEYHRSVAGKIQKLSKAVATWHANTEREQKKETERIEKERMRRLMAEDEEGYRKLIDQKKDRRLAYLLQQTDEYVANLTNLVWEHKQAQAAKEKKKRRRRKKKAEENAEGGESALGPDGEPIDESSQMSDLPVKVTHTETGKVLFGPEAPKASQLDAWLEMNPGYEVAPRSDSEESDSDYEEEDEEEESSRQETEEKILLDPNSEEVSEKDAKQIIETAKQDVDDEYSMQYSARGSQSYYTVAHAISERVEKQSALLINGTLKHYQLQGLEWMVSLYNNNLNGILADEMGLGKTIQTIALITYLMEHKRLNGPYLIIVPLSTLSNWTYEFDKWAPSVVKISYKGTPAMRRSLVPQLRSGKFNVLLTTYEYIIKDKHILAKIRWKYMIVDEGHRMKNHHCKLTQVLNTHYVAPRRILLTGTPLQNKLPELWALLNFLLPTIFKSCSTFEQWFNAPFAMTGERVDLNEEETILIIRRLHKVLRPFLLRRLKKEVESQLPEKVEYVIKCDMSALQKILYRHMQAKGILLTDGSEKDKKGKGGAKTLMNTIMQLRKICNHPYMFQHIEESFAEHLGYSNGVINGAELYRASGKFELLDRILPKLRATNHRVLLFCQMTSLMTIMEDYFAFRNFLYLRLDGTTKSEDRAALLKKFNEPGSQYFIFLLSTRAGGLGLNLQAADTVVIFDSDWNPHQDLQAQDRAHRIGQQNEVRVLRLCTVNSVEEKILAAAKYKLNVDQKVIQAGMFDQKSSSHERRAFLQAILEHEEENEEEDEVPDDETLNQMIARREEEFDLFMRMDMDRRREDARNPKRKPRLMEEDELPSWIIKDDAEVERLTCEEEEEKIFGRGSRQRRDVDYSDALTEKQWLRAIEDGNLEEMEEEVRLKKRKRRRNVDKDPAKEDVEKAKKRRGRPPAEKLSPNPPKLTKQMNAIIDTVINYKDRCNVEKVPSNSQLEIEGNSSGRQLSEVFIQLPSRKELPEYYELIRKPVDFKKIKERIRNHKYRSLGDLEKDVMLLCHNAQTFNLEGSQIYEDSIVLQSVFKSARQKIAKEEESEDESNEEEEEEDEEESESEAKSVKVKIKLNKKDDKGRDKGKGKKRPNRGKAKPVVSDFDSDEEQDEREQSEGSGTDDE

On to `Cc1cc2cc(CNC(=O)c3ccc(S(=O)(=O)N4CCCCC4)cc3)ccc2[nH]1`, for which the EC50 in [1] was > 20 µM (inactive).
`COc1ccc2cc(C(=O)Nc3ccc(Cl)cc3)sc(=O)c2c1OC`: the IC50 in assay [2] is 3.51 µM (active); in [3], 12.6 µM (inactive).
`COc1ccc(-c2nc(C#N)c(NCC3CCCO3)o2)cc1` (centres undefined): the EC50 in assay [4] and in [5] was > 91.1 µM (inactive) each time.
For the compound `O=[N+]([O-])c1ccccc1-c1nc(-c2ccc(Br)o2)no1`, the EC50 is 0.302 µM (active) in assay [6]; < 0.1 µM (active) in assay [7]; > 120 µM (not active) in assay [8]; 0.364 µM (active) in assay [9]; 0.252 µM (active) in assay [10]; 28.2 µM (inactive) in assay [11]. In assay [13], the EC50 is 4.88 µM (active). Further, the IC50 in assay [12] is 69.1 µM (inactive).
Take `Cc1cccc(C)c1NC(=O)c1nc(S(=O)(=O)Cc2ccccc2)ncc1Cl`: the EC50 was 9.13 µM (active) in assay [14]; 6.63 µM (active) in [17]; 38.1 µM (active) in assay [22]; > 59.6 µM (inactive) in assay [23]; > 59.6 µM (inactive) in assay [24]. Besides, the AC50 is 1.74 µM (active) in [15]; 4.34 µM (active) in [16]; 4.33 µM (active) in [18]; 22.9 µM (active) in assay [19]; 10.6 µM (active) in [20]. Moreover, in assay [21], the IC50 is 4.11 µM (active).
